Experimental data reported in patent US10596151B2, “Methods and pharmaceutical compositions for reducing arterial stiffness with a combination of a therapeutic agent blocking the angiotensin receptor and a therapeutic agent inhibiting the NEP enzyme” (Novartis AG, priority 2015, dated 2020).
Marks after values point to notes of the source that are not given here.

Experiments:
[1] = system: elderly patients (≥60 years) with essential hypertension; assay: […] study: carotid-femoral aortic pulse wave velocity (SphygmoCor X-CEL); assay type: in vivo, human; conditions: for Change from baseline to 12 weeks, PWV / Change from baseline to 52 weeks, PWV: pulse wave velocity; for Change from baseline to 12 weeks, PWV: Week 12 endpoint, n = 192 LCZ696, n = 196 olmesartan; for Change from baseline to 52 weeks, PWV: week 52 endpoint, n = 199 both treatments
Experimental: In the context of the present invention PWV is measured as aortic PWV=aPWV. One system to measure aPWV is the SphygmoCor X-CEL system which measures the carotid-femoral aPWV, as the speed of the arterial pressure waveform as it travels through the descending aorta to the femoral artery, which is detected from simultaneously measured carotid and femoral arterial pulses. The carotid pulse is detected by applanation tonometry using a high-fidelity pressure transducer (Millar Instruments, Houston, Tex.), while the femoral pulse is detected using a partially inflated blood pressure cuff wrapped around the upper thigh. The distance travelled by the pulse wave is captured by making physical measurements on the body surface according to the manufacturer's recommendations. […] [Butlin M, Qasem A, Avolio A P. Estimation of central aortic pressure waveform features derived from the brachial cuff volume displacement waveform. Conf Proc IEEE Eng Med Biol Soc 2012; 2012:2591-4]
The study enrolled patient from 5 Dec. 2012 to 8 Apr. 2015.
The SphygmoCor X-CEL system also measures the carotid-femoral aPWV, as the speed of the arterial pressure waveform as it travels through the descending aorta to the femoral artery, which is detected from simultaneously measured carotid and femoral arterial pulses. The carotid pulse is detected by applanation tonometry using a high-fidelity pressure transducer (Millar Instruments, Houston, Tex.), while the femoral pulse is detected using a partially inflated blood pressure cuff wrapped around the upper thigh. The distance traveled by the pulse wave is captured by making physical measurements on the body surface according to the manufacturer's recommendations.

[2] = system: patients with heart failure with preserved ejection fraction; conditions: cited from earlier work
[3] = system: patients with mild-to-moderate essential hypertension; conditions: LCZ696 100, 200 and 400 mg once daily; cited from earlier work

| Structure (SMILES) | Between-treatment difference, PWV, 12 weeks ([1]; LCZ696 regimen vs olmesartan regimen, 12 weeks) | Between-treatment difference, PWV, 52 weeks ([1]; LCZ696 regimen vs olmesartan regimen, 52 weeks) | reduction of PWV in subgroup of patients with high baseline PWV ([1]; ad-hoc analysis, vs olmesartan regimen, both Week 12 and 52) | difference in carotid-femoral PWV between the two regimens ([1]; both Week 12 and 52, LCZ696 vs olmesartan regimen) | Change from baseline to 12 weeks, PWV [1] | Change from baseline to 52 weeks, PWV [1] | reduction of NT-proBNP vs valsartan alone ([2]; at 12 weeks) | tolerability ([2]; heart failure with preserved ejection fraction) | BP reductions vs corresponding doses of valsartan alone (160 and 320 mg) [3] | tolerability [3] |
| --- | --- | --- | --- | --- | --- | --- | --- | --- | --- | --- |
| CCCCC(=O)N(Cc1ccc(-c2ccccc2-c2nn[n-]n2)cc1)C(C(=O)[O-])C(C)C.CCCCC(=O)N(Cc1ccc(-c2ccccc2-c2nn[n-]n2)cc1)C(C(=O)[O-])C(C)C.CCOC(=O)C(C)CC(Cc1ccc(-c2ccccc2)cc1)NC(=O)CCC(=O)[O-].CCOC(=O)C(C)CC(Cc1ccc(-c2ccccc2)cc1)NC(=O)CCC(=O)[O-].O.O.O.O.O.[Na+].[Na+].[Na+].[Na+].[Na+].[Na+] [LCZ696, trisodium [3-((1S,3R)-1-biphenyl-4-ylmethyl-3-ethoxycarbonyl-1-butylcarbamoyl) propionate-(S)-3′-methyl-2′-(pentanoyl{2″-(tetrazol-5-ylate)biphenyl-4′-ylmethyl}amino)butyrate]hemipentahydrate] | −0.1 (0.17)* | −0.1 (0.18) | tended to reduce PWV to a greater extent than olmesartan regimen | no significant difference | −0.7 | −0.8 | to a greater extent than valsartan alone | well tolerated | greater BP reductions than corresponding doses of valsartan alone | well tolerated |
| CCCc1nc(C(C)(C)O)c(C(=O)O)n1Cc1ccc(-c2ccccc2-c2nnn[nH]2)cc1 [Olmesartan, reference compound] | – | – | – | – | −0.6 | −0.8 | – | – | – | – |
